This note sets out measurements from patent US20150148415A1, “DERIVATIZED DENDRIMER WITH LOW CITOTOXICITY FOR IN VIVO, EX VIVO, IN VITRO OR IN SITU CHELATION OF HEAVY METALS OR ACTINIDES” (priority 2013, published 2015).

In this data set the test system is C57BL/6 mice. Description: In vivo acute toxicity assay, substance given alone (serum biochemistry, kidney histology). Here is the method: Animals. A total of 48 male C57BL/6 mice weighing 25-30 g purchased from the Instituto de Salud Pública (ISP), were used. Animal housing and experiment protocols were approved by the University of Talca in adherence to Conicyt experimental animal administrative regulations. All groups were maintained at a constant temperature (22±1° C.) on a 12-h light/12-h dark cycle (lights-on at 08:00 a.m.) and had free access to food and water.
Animal experimental design. […] Animals were euthanized 48 h later and blood samples were collected from the heart for the assessment of serum urea, creatinine, Lactate Deshidrogenase (LDH), Uric Acid and Calcium
Examination of nephrotoxicity. Mice were anaesthetized with sodium pentobarbitone and blood samples were collected from the heart and the kidneys were removed. Serum levels of urea, creatinine, LDH, Uric Acid and Calcium were determined using commercially available kits according to the protocols provided by Valtek (Valtek Diagnostic, Nuñoa, Chile). Left kidneys were fixed in 10% neutral buffered formaldehyde, embedded in paraffin wax and automatically processed. Sections (3 μm in thickness) of the embedded tissue were stained with hematoxylin-eosin for observation under light microscope.
Statistical analysis. The in vitro data were obtained from at least three independent experiments with three replicates, and all data are expressed as mean±SD. Experimental groups were compared using a one-way analysis of variance (ANOVA) followed by Scheffé's test when the data were normally distributed and by the Kruskal-Wallis test when they were not normally distributed. p-Values <0.05 were considered significant. Statistical tests were performed using GraphPad Prism 5 software, version 5.0 for Mac OS X.

Where [1] appears, read: substance alone ip (UO2 5 mg/kg of uranium; G4-Lys-Fmoc-Cbz 16 mg/kg; G5-Cou 40 mg/kg; EDTA 75 mg/kg), serum 48 h.

For `CC(=O)O.CC(=O)O.O.O.[O]=[U]=[O]` [UO2^−, UO2(CH3COO)2.2H2O], for the setting “UO2 alone, 5 mg/kg of uranium ip, serum 48 h”, the concentration of creatinine worked out at 1.7±0.5. Under setting [1], the Calcium turned out to be 8.8 ± 0.57 mg/dL, the Urea came out at 226.3 ± 39.4 mg/dL and the “Uric Acid” value is 2.5 ± 0.39 mg/dL. Further, the “kidney histology (hematoxylin-eosin)” value (substance alone ip, 48 h) is listed as “irreversible damage with necrosis”. In addition, the “LDH (wide spectre toxicity indicator)” value (substance alone ip, serum 48 h) was “induced a significant increase of the enzyme”.
